Columns and labels:
[1] = [2019], cited from earlier work
monooxygenases = test: Monooxygenases activity screening, summary over isozymes; assay type: in vitro ADME, human; conditions: single-enzyme incubations, 25 μM
Procedure: According to an established protocol (Wagmann et al., [2016]), the final volume per reaction tube was 50 μl with a final 4F-MDMB-BINACA concentration of 25 μM and enzyme concentrations of 50 pmol/ml for CYP1A2, CYP2A6, CYP2B6, CYP2C8, CYP2C9, CYP2C19, CYP2D6, CYP2E1, CYP3A4, and CYP3A5, respectively, or 0.25 mg protein/ml for FMO3. Furthermore, the reaction mixture contained 90 mM phosphate buffer (pH 7.4), superoxide dismutase (200 U/ml), isocitrate (5 mM), MgCl2 (5 mM), isocitrate dehydrogenase (0.5 U/ml), and NADP^+ (1.2 mM). The phosphate buffer was replaced with Tris buffer (90 mM) for incubations with CYP2A6 and CYP2C9 according to the manufacturer's recommendation. All incubations were performed at 37°C for 30 min and terminated by adding 50 μl of ice-cold acetonitrile. Afterwards, the mixtures were centrifuged at 18,407 × g for 5 min, 70 μl of the supernatants was transferred into autosampler vials, and 1 μl was injected onto the LC-HRMS/MS system. Positive control incubations were performed with pHLM (1 mg microsomal protein/ml), and negative controls without enzyme were prepared to identify non-metabolically formed compounds. All incubations were done in duplicate.

[2] = pHLM without co-substrates of phase II reactions; ref Haschimi et al., [2019]; cited from earlier work
hCES1c = target: T1, hCES1c (Homo sapiens, UniProt P23141); test: Esterases activity screening, hCES1c; assay type: in vitro ADME; set-up: key: +, detected; –: −, not detected; conditions: 100 μM 4F-MDMB-BINACA, 0.2 mg protein/ml, duplicate
T1 construct: purchased Corning
T1 sequence (P23141 18-566 isoform P23141-3 limits assumed): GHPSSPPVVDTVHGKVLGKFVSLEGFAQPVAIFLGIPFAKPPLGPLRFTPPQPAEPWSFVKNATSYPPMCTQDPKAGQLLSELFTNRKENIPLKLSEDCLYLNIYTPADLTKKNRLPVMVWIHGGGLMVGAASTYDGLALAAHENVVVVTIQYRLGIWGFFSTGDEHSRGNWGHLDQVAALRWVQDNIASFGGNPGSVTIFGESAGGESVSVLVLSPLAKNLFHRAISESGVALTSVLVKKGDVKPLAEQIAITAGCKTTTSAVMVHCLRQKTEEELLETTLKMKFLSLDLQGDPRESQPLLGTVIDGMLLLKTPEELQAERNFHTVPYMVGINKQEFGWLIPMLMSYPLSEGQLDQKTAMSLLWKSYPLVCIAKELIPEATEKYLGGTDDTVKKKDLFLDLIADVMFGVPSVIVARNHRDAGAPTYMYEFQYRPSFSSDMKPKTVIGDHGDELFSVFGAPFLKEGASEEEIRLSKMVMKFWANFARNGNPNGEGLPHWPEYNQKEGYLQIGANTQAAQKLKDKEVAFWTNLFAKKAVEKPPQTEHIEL
Procedure: (§1) Experiments were performed in accordance with a previous study (Meyer et al., [2015]) with minor modifications. The final volume per reaction tube was 100 μl with a final 4F-MDMB-BINACA concentration of 100 μM and enzyme concentration of 0.2 mg protein/ml for hCES1b, hCES1c, and hCES2. Incubations with pHLM and pHLS9 (0.2 mg protein/ml, each) were performed in a similar manner. Additionally, incubations with human plasma (50 μl pooled human plasma, 40 μl phosphate buffer, and 10 μl substrate) were performed. The reactions were started by adding the enzyme-containing preparation and terminated with an equal volume of ice-cold acetonitrile containing diazepam-d5 (100 μM) as an internal standard. Only plasma incubations were terminated by addition of a three-fold volume of ice-cold acetonitrile. The reaction mixtures were centrifuged at 18,407 × g for 15 min, and then supernatants were transferred to autosampler vials, and 5 μl was injected onto the LC-HRMS/MS system. Negative control incubations without enzyme were prepared to identify non-metabolically formed compounds. All incubations were done in duplicate.

[3] = Esterases activity screening, pooled human blood plasma; assay type: in vitro ADME; set-up: key: +, detected; –, not detected; conditions: 100 μM 4F-MDMB-BINACA, duplicate
Procedure: as §1

[4] = Esterases activity screening, pHLM; assay type: in vitro ADME, human; set-up: key: +, detected; –: −, not detected; conditions: 100 μM 4F-MDMB-BINACA, 0.2 mg protein/ml, duplicate
Procedure: as §1

hCES2 = target: T2, hCES2 (Homo sapiens, UniProt O00748); test: Esterases activity screening, hCES2; assay type: in vitro ADME; set-up: key: +, detected; –, not detected; conditions: 100 μM 4F-MDMB-BINACA, 0.2 mg protein/ml, duplicate
T2 construct: purchased Corning
T2 sequence (O00748 27-559): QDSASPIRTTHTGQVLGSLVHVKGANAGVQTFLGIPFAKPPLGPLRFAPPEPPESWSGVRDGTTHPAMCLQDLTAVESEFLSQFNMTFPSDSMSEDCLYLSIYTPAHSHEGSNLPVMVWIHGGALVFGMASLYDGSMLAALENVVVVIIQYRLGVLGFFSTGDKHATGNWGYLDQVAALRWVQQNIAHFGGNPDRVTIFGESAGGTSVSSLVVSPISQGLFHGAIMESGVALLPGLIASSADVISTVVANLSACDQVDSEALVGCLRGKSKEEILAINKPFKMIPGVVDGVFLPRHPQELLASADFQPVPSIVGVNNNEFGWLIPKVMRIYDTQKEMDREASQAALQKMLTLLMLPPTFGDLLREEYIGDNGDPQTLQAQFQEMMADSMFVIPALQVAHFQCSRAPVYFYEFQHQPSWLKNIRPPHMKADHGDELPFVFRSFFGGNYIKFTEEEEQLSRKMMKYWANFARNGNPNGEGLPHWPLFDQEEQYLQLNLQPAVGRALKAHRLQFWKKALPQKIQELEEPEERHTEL
Procedure: as §1

[5] = Esterases activity screening, pHLS9; assay type: in vitro ADME, human; set-up: key: +, detected; –: −, not detected; conditions: 100 μM 4F-MDMB-BINACA, 0.2 mg protein/ml, duplicate
Procedure: as §1

COC(=O)C(NC(=O)c1nn(CCCCF)c2ccccc12)C(C)(C)C (centres unmarked) [4F-MDMB-BINACA, methyl 2-[1-(4-fluorobutyl)-1H-indazole-3-carbonyl]amino-3,3-dimethylbutanoate]
Number of metabolites identified in human urine samples ([1]; 17 human urine samples, conjugate cleavage, ref Haschimi et al.): 13 | Number of metabolites identified in blood and urine samples ([1]; four blood and four urine samples, ref Krotulski et al.): nine | Monooxygenases involved in the metabolic phase I reactions (monooxygenases): CYP1A2, CYP2C8, CYP2C19, CYP3A4, and CYP3A5 | Number of phase I metabolites identified in pHLM incubations [2]: 11

O=C(O)c1nn(CCCCF)c2ccccc12 [MB1]
Detection of metabolite in incubation with hCES1c (hCES1c): + | Detection of metabolite in incubation with pHBP [3]: – | Detection of metabolite in incubation with pHLM [4]: + | Detection of metabolite in incubation with hCES2 (hCES2): – | Detection of metabolite in incubation with pHLS9 [5]: +

CC(C)(C)C(NC(=O)c1nn(CCCCF)c2ccccc12)C(=O)O (centres unmarked) [MB8]
Detection of metabolite in incubation with hCES1c (hCES1c): + | Detection of metabolite in incubation with pHBP [3]: – | Detection of metabolite in incubation with pHLM [4]: + | Detection of metabolite in incubation with hCES2 (hCES2): – | Detection of metabolite in incubation with pHLS9 [5]: +

Source: paper PMC7380166, “How to Study the Metabolism of New Psychoactive Substances for the Purpose of Toxicological Screenings—A Follow-Up Study Comparing Pooled Human Liver S9, HepaRG Cells, and Zebrafish Larvae” (Frontiers in Chemistry, 2020)
